Experimental data taken from patent US10966426B2, “Herbicidal compositions comprising phenylpyrimidines” (BASF SE, priority 2016, dated 2021).

Legend:
Format in all cases: in vivo
[1] = system: Poa annua; test: greenhouse pre-emergence treatment, POAAN; conditions: clomazone solo (CS 360 g/l), 20 DAT
Excerpt: (§1) The culture containers used were plastic pots containing loamy sand with approximately 3.0% of humus as substrate. The seeds of the test plants were sown separately for each species.
(§2) For the pre-emergence treatment, the active compounds, suspended or emulsified in water, were applied directly after sowing by means of finely distributing nozzles. The containers were irrigated gently to promote germination and growth and subsequently covered with transparent plastic hoods until the plants had rooted. This cover caused uniform germination of the test plants unless this was adversely affected by the active compounds.
(§3) Depending on the species, the plants were kept at 10-25° C. and 20-35° C., respectively.
(§4) The test period extended over 2 to 4 weeks. During this time, the plants were tended and their response to the individual treatments was evaluated.
(§5) Evaluation was carried out using a scale from 0 to 100. 100 means no emergence of the plants, or complete destruction of at least the above-ground parts, and 0 means no damage or normal course of growth. A good herbicidal activity is given at values of at least 70, and very good herbicidal activity is given at values of at least 85.
(§6) The respective stated components A and B, and if appropriate, C were formulated as a 10% by weight strength emulsion concentrate and, with addition of the amount of solvent system, introduced into the spray liquor used for applying the active compound. In the examples, the solvent used was water.
(§7) In the examples below, using the method of S. R. Colby (1967) “Calculating synergistic and antagonistic responses of herbicide combinations”, Weeds 15, p. 22ff., the value E, which is expected if the activity of the individual active compounds is only additive, was calculated. E=X+Y−(X·Y/100) where X=effect in percent using herbicide A at an application rate a; • Y=effect in percent using herbicide B at application rate b; • E=expected effect (in %) of herbicide A+herbicide B at application rates a+b.

[2] = system: Alopecurus myosuroides; test: greenhouse pre-emergence treatment, ALOMY; conditions: clomazone solo (CS 360 g/l), 30 gai/ha, 20 DAT
Excerpt: as §1, §2, §3, §4, §5, §6, §7

[3] = system: Avena fatua; test: greenhouse pre-emergence treatment, AVEFA; conditions: Avena fatua, 480 h, read-out: % activity
Summary of the method: (§8)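 Seeds were sown per species in pots of loamy sand with about 3.0% humus, sprayed with the aqueous spray liquor directly after sowing, watered and hooded until rooted, then kept at 10-25° C. or 20-35° C. for 2 to 4 weeks. Damage was scored 0 (none) to 100 (no emergence/complete destruction).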

[4] = system: Helianthus annuus; test: greenhouse pre-emergence treatment, HELAN; conditions: Helianthus annuus, 480 h, read-out: % activity
Summary of the method: as §8

[5] = system: Lolium multiflorum; test: greenhouse pre-emergence treatment, LOLMU; conditions: Lolium multiflorum, 480 h, read-out: % activity
Excerpt: as §1, §2, §3, §4, §5, §6, §7

[6] = system: Polygonum convolvulus; test: greenhouse pre-emergence treatment, POLCO; conditions: Fallopia convolvulus, 480 h, read-out: % activity
Excerpt: as §1, §2, §3, §4, §5, §6, §7

[7] = system: Setaria viridis; test: greenhouse pre-emergence treatment, SETVI; conditions: SETVI, 20 DAT
Excerpt: as §1, §2, §3, §4, §5, §6, §7

[8] = system: Galium aparine; test: greenhouse pre-emergence treatment, GALAP; conditions: Galium aparine, 480 h, read-out: % activity
Excerpt: as §1, §2, §3, §4, §5, §6, §7

[9] = system: Echinocloa crus-galli; test: greenhouse pre-emergence treatment, ECHCG; conditions: clomazone solo (CS 360 g/l), 120 gai/ha, 20 DAT
Excerpt: as §1, §2, §3, §4, §5, §6, §7

[10] = system: Digitaria sanguinalis; test: greenhouse pre-emergence treatment, DIGSA
Excerpt: as §1, §2, §3, §4, §5, §6, §7

[11] = system: Bromus sterilis; test: greenhouse pre-emergence treatment, BROST; conditions: Bromus sterilis, 480 h, read-out: % activity
Summary of the method: as §8

[12] = system: Brachiaria decumbens; test: greenhouse pre-emergence treatment, BRADC; conditions: BRADC, 20 DAT; for % activity: clomazone solo (CS 360 g/l)
Summary of the method: as §8

[13] = system: Apera spica-venti; test: greenhouse pre-emergence treatment, APESV; conditions: clomazone solo (CS 360 g/l), 20 DAT
Excerpt: as §1, §2, §3, §4, §5, §6, §7

[14] = system: Ambrosia elatior; test: greenhouse pre-emergence treatment, AMBEL; conditions: AMBEL, 20 DAT; for % activity: clomazone solo (CS 360 g/l)
Summary of the method: as §8

CC1(C)CON(Cc2ccccc2Cl)C1=O [clomazone]
% activity ([1]; 15 gai/ha): 0%
% activity ([1]; 30 gai/ha): 0%
% activity ([1]; 60 gai/ha): 30%
% activity ([1]; 120 gai/ha): 80%
% activity [2]: 0%
pest or weed control at 30 g/ha [3]: 0%
plant injury at 30 g/ha [4]: 10%
pest or weed control at 60 g/ha [5]: 40%
pest or weed control at 120 g/ha [5]: 60%
pest or weed control at 60 g/ha [6]: 60%
pest or weed control at 120 g/ha [6]: 75%
% activity ([7]; solo clomazone (CS 360 g/l) 30 gai/ha): 0%
% activity ([7]; clomazone solo (CS 360 g/l), 60 gai/ha): 30%
% activity ([7]; clomazone solo (CS 360 g/l), 120 gai/ha): 65%
% activity ([7]; clomazone solo (CS 360 g/l), 125 gai/ha): 65%
pest or weed control at 30 g/ha [8]: 80%
% activity [9]: 90%
pest or weed control at 60 g/ha ([10]; Digitaria sanguinalis, 480 h, DIGSA, 20 DAT, solo clomazone (CS 360 g/l) 60 gai/ha): 0%
pest or weed control at 120 g/ha ([10]; Digitaria sanguinalis, 480 h, DIGSA, 20 DAT, solo clomazone (CS 360 g/l) 120 gai/ha): 30%
pest or weed control at 15 g/ha ([10]; Digitaria sanguinalis, 480 h, read-out: % activity): 0%
% activity ([10]; clomazone solo (CS 360 g/l), 120 gai/ha, 20 DAT, DIGSA): 30%
pest or weed control at 30 g/ha [11]: 0%
pest or weed control at 120 g/ha [11]: 30%
pest or weed control at 15 g/ha ([12]; Urochloa decumbens, 480 h, solo clomazone (CS 360 g/l) 15 gai/ha): 0%
pest or weed control at 30 g/ha ([12]; Urochloa decumbens, 480 h, solo clomazone (CS 360 g/l) 30 gai/ha): 0%
pest or weed control at 60 g/ha ([12]; Urochloa decumbens, 480 h, solo clomazone (CS 360 g/l) 60 gai/ha): 0%
pest or weed control at 120 g/ha ([12]; Urochloa decumbens, 480 h, solo clomazone (CS 360 g/l) 120 gai/ha): 30%
% activity ([12]; 30 gai/ha): 0%
% activity ([12]; 60 gai/ha): 0%
% activity ([12]; 120 gai/ha): 30%
% activity ([13]; 15 gai/ha): 20%
% activity ([13]; 120 gai/ha): 65%
pest or weed control at 15 g/ha ([14]; Ambrosia artemisiifolia, 480 h, solo clomazone (CS 360 g/l) 15 gai/ha): 0%
pest or weed control at 60 g/ha ([14]; Ambrosia artemisiifolia, 480 h, solo clomazone (CS 360 g/l) 60 gai/ha): 10%
pest or weed control at 120 g/ha ([14]; Ambrosia artemisiifolia, 480 h, solo clomazone (CS 360 g/l) 120 gai/ha): 10%
pest or weed control at 1250 g/ha ([14]; Ambrosia artemisiifolia, 480 h, solo clomazone (CS 360 g/l) 1250 gai/ha): 10%
% activity ([14]; 60 gai/ha): 10%
% activity ([14]; 120 gai/ha): 10%
